Results published in patent US20250250559A1, “METHOD TO ANALYZE AND OPTIMIZE GENE EDITING MODULES AND DELIVERY APPROACHES” (Hoffmann-La Roche Inc., priority 2016, published 2025).
Values joined by “and” are separate entries in the source; they are usually repeats but may differ in a detail not shown here. Identical values can stand only once. “Also recorded” adds a separate entry of the source.

Experiments:
Format in all cases: cell-based, human
DPH1 gene [1] = test: HRM-PCR on single cells followed by DT sensitivity assay; conditions: FIG. 5B
Description: Cells which have only one allele of dph1 or dph2 modified are not toxin resistant. To identify and quantify those events, high resolution melting (HRM) PCR was applied in a similar manner as described by Stahl et al (Stahl, et al. 2015): 24 h after transfection, single cells were deposited in 96-well plates by FACS (FACSAria, BD biosciences) and grown until confluency. Cells were washed with PBS and lysed by addition of 40 μL cell lysis buffer (Roche) per well. After 15 mins incubation at RT on a plate shaker (Titramax 1000, Heidolph) at 750 rpm, the cell lysate was 1:5 diluted with PCR grade H2O. 5 μL cell lysate was mixed with a High resolution melting (HRM) master mix (Roche) and with primer spanning the gRNA target sequence. PCR and HRM were performed in an LC480 II (Roche) according the manufacturer's protocol. Clones with edited target genes were identified by their altered melting curve compared to MCF7-WT cells.
Therefore, such clones were expanded (without toxin or Puromycin selection) and subjected to cell viability analyses to discriminate between heterozygous (toxin sensitive) and homozygous (resistant) knockout cells. […] Metabolic activity of surviving cells was assessed by a CellTiterGlo® Luminescent Viability Assay (Promega) performed according to the manufacturer's specifications.

DPH1 gene [2] = test: DT resistant colony count after DPH1 gene editing (homozygous gene inactivation); conditions: for # of DT resistant colonies (20,000 seeded cells) / # of DT resistant colonies (20,000 seeded cells) (unheaded second sub-column: mean): DPH1 (gRNA length), TF eff. = 31%; for # of DT resistant colonies (20,000 seeded cells): MCF7, individual samples A-D; for # of DT resistant colonies (mean of the samples): DPH1 assay (integr. vs. k.o.), 20,000 seeded cells; for # of DT resistant colonies (mean of the samples) / # of DT resistant colonies: TF eff. = 38%; for # of DT resistant colonies: DPH1 assay (integr. vs. k.o.), MCF7, 20,000 seeded cells, individual samples; for generation of DTr colonies: MCF7
Description: (§1) MCF7 cells (Brooks, et al. 1973) were originally obtained from ATCC (subsequently propagated in an in-house cell bank) and maintained in RPMI […] medium supplemented with 10% FCS, 2 mM L-Glutamine and penicillin/streptomycin at 37° C. and 85% humidity. For transfection of plasmids harboring gene-editing modules, 3,000,000 cells were seeded in a 10 cm diameter culture dish and cultivated at 37° C. and humidified 5% CO2. 24 h after seeding, cells were transfected with 20 μg total DNA using JetPEI (Polyplus) according to the manufacturer's protocol but with an N/P ratio of 6:1. Transfection efficiency was determined after 24 h by flow cytometry (FACS Calibur, BD biosciences) of cells that were transfected with a modified eGFP expression plasmid (Zhang, et al. 1996).
(§2) Plasmids encoding CRISPR/Cas9 gene-editing entities (i.e. knock-out and integration systems) against Dph1 (gRNA target sequence: […] (SEQ ID NO: 01) derived from RefSeq: NM_001383) and Dph2 (gRNA target sequence: […] (SEQ ID NO: 02) derived from RefSeq: NM_001039589, NM_001384), and scrambled control (gRNA sequence: […] (SEQ ID NO: 03)) were obtained from OriGene. This system comprises one plasmid expressing a ˜100 nt gRNA under control of a U6 promoter as well as Cas9 nuclease under control of a CMV promoter and a Donor plasmid with a promoter-less GFP/PM expression cassette flanked by homologous arms to the target gene (Dph1 or Dph2). Additional Dph1 gRNA sequence variants of different sizes (OriGene) […]
(§3) MCF7 cells which have all chromosomal copies of DPH1 or DPH2 inactivated are resistant to diphtheria toxin (Stahl, et al. 2015). Thus, occurrence and frequency of toxin resistant cells/colonies upon CRISPR/Cas inflicted gene inactivation provides a measure for efficiency of inactivation of all gene copies. Therefore, MCF/cells were transfected as described in Example 1 with (i) a GFP expression plasmid as transfection control, (ii) the CRISPR/Cas9 Dph1 or Dph2 knock-out/integration system and (iii) knock-out/integration entities containing a scrambled gRNA to determine Cas9 independent integration frequencies. After determination of transfection efficiency, cells were seeded in 6-well plates. For quantification of homozygous knock-out events by DT 20000 cells were seeded and for quantification of integration events by PM or both events 40000 cells were seeded. RPMI medium was exchanged by RPMI medium containing DT or PM or both toxins 3 days after cell seeding. Exchange of medium was repeated every 2-3 days until all dead cells were removed from the plates and actively growing colonies could be detected via microscopic inspection. Thereafter (between day 12 and day 14 after start of toxin exposure), cells were washed 3 times with PBS and subsequently stained with ice cold methylene blue (0.2% in 50% EtOH). Methylene blue solution was subsequently removed and the plates were carefully washed under running water. Finally, cell colonies were counted under the microscope with a 5 mm grid foil.
MCF7 cells which have all chromosomal copies of DPH1 inactivated are DT resistant. Thus, occurrence and frequency of DTr colonies upon ZFN inflicted gene inactivation and/or cassette integration provides a measure for efficacy of inactivation of all gene copies. The ZFN recognition sequence ([…], cleavage site, SEQ ID NO: 10) are derived from NM_001383.3 (DPH1-wt) and were obtained from Sigma Aldrich. A PAC integration cassette for this position was obtained from OriGene. MCF7 cells were transfected as described above with (i) a GFP expression plasmid, (ii) the plasmid encoding DPH1-targeting ZFN and (iii) the DPH1-targeting PAC-integration cassette. After determination of transfection efficiency, cells were seeded in 6-well plates. For quantification of homozygous knock-out events (DTr) 20,000 cells were seeded, 40,000 cells for quantification of integration events (PMr) or double resistances. […]

DPH2 gene [3] = test: PM resistant colony count after DPH2 gene editing; conditions: DPH2 assay (integr. vs. k.o.); for # of PM resistant colonies (40,000 seeded cells): MCF7, individual samples A-D
Description: as §1, §2, §3
CRISPR/Cas module for targeted integration contains a puromycin (PM) resistance gene expression cassette without promoter to avoid transient expression. Thus, detection of integration of recombinant sequences into the genome was detected by determining sensitivity of cells towards PM. A concentration of […] PM (which quantitatively eliminates wildtype MCF7 cells) was applied to select MCF7 cells with stably integrated expression cassettes. PM-resistant colonies selected with the same procedure as described above for the DT selection and visualized and quantified (between 12 and 14 days after start of selection) in the same manner as described above for toxin resistant colonies. Number of PM resistant colonies obtained with non-target guide sequences (scrambled gRNA, FIG. 1) reflect the nonspecific integration background. […]

DPH2 gene [4] = test: DT resistant colony count after DPH2 gene editing; conditions: DPH2 assay (integr. vs. k.o.)
Description: as §1, §2, §3

Substance | mono-allelic gene inactivation (toxin sensitive, HRM confirmed) versus inactivation of both alleles (DTr) (DPH1 gene [1]) | efficiency relative to ZFN-editing (gene inactivation and integration) (DPH1 gene [2]) | efficiency relative to engineered high fidelity CRISPR/Cas9 (DPH1 gene [2]) [fold] | # of DT resistant colonies (20,000 seeded cells) (DPH1 gene [2]) | # of DT resistant colonies (20,000 seeded cells) (DPH1 gene [2]; listed as 20 mer Dph1 CRISPR Cas9 gRNA) | # of DT resistant colonies (20,000 seeded cells) (unheaded second sub-column: mean) (DPH1 gene [2]) | # of DT resistant colonies (mean of the samples) (DPH1 gene [2]) | # of DT resistant colonies (DPH1 gene [2]) | # of DT resistant colonies (DPH1 gene [2]; listed as CRISPR Cas9 Dph1 gRNA) | DPH1 inactivation efficacy in dependence on gRNA length (DPH1 gene [2]; DTr colonies) | frequency of complete inactivation of the DPH1 gene (all alleles) (DPH1 gene [2]; MCF7, FIG. 5A) | efficacy of inactivation of both DPH1 alleles (DTr) over integration of the PAC expression cassette (PMr) (DPH1 gene [2]; MCF7, FIG. 6) | frequency of complete inactivation of the DPH1 gene (all alleles) (DPH1 gene [2]; MCF7, considering transfection efficiencies of 40%) | # of PM resistant colonies (40,000 seeded cells) (unheaded second sub-column: mean) (DPH2 gene [3]; MCF7) | # of PM resistant colonies (40,000 seeded cells) (DPH2 gene [3]) | # of PM resistant colonies (40,000 seeded cells) (DPH2 gene [3]; listed as 20 mer scRNA) | generation of DTr colonies (DPH1 gene [2]) | generation of DTr colonies (DPH1 gene [2]; listed as scrambled guides) | # of DT resistant colonies (40,000 seeded cells) (unheaded second sub-column: mean) (DPH2 gene [4]; MCF7) | # of DT resistant colonies (40,000 seeded cells) (DPH2 gene [4]; MCF7, individual samples A-D)
20 mer SpCas9 DPH1 gRNA: Plasmids encoding SpCas9 and Dph1 gRNA (target CAGGGCGGCCGAGACGGCCC, SEQ ID NO: 01) plus PAC donor plasmid, OriGene | twice as frequent | twice as efficient | 5 | 417 and 406 and 409 and 404 | 417 and 406 and 409 and 404 | 409 | 472 | 364 and 545 and 543 and 435 | 364 and 545 and 543 and 435 | maximum DPH1 inactivation efficacy; also recorded: maximal DPH1 gene inactivation efficiency | ~6 % of all transfected cells | 30-50 fold | 2.5 % of all cells | – | – | – | – | – | – | –
20 mer SpCas9 scRNA: Scrambled control gRNA GCACTACCAGAGCTAACTCA (SEQ ID NO: 03) with SpCas9 and donor plasmid [reference compound] | – | – | – | 0 | – | 0 | 0 | 0 | – | – | – | – | – | 0.5 | 2 and 0 (3×) | 2 and 0 (3×) | did not generate any DTr colony | did not generate any DT-resistant colony | 0 | 0
